# Reference: patent publication US10538555B2, “Macrocyclic inhibitors of the PD-1/PD-L1 and CD80(B7-1)/PD-L1 protein/protein interactions” (BRISTOL-MYERS SQUIBB COMPANY, priority 2014, dated 2020)
# Where a SMILES comes first, the peptide text is derived from it. Bridges are numbered along the chain shown (N, C = ends). [ ]: non-standard residue; d: D form. Phe(3,4-F2) = N[C@@H](Cc1ccc(F)c(F)c1)C(=O)O; dPro(4S-Me) = C[C@@H]1CN[C@@H](C(=O)O)C1; NMeF = CN[C@@H](Cc1ccccc1)C(=O)O; dNMeF = CN[C@H](Cc1ccccc1)C(=O)O; dHyp = O=C(O)[C@H]1C[C@H](O)CN1; NMehSer = CN[C@@H](CCO)C(=O)O; NMeNle = CCCC[C@H](NC)C(=O)O; Orn = NCCC[C@H](N)C(=O)O
# Biological target: T1, Human PD-L1/PD-1 (Homo sapiens, UniProt Q9NZQ7)
# T1 construct: TVMV protease cleavage site (C); made in house; host or cells: HEK293T cells
# Assay: HTRF Human PD-L1/PD-1 binding assay (PD-1-Ig/PD-L1-His)
# Conditions: PD-L1-His 10 nM, PD-1-Ig 20 nM; class symbol; read-out: HTRF Human PD-L1/PD-1 Binding Assay IC50 Range
# How it was run: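 Truncated Fc-fused human PD-1 (aa 25-167) at 20 nM and His-tagged PD-L1 (aa 18-239) at 10 nM final are used, with peptides preincubated 15 min with PD-L1. Detection uses europium-cryptate anti-Ig and APC anti-His antibodies; 665/620 nm ratio.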
# T1 sequence (Q9NZQ7 with tags, fused parts or gaps): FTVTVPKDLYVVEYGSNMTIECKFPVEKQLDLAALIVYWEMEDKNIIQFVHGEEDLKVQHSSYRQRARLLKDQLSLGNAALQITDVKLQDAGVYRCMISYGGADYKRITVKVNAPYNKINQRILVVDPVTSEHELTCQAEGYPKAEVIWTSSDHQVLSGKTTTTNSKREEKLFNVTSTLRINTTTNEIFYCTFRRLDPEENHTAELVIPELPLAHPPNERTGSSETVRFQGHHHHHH
row,SMILES,IC50 [nM]
1,"CCCC[C@H]1C(=O)N2C[C@@H](O)C[C@@H]2C(=O)N[C@@H](CC(=O)O)C(=O)N[C@@H](C(C)C)C(=O)N(C)[C@@H](Cc2ccccc2)C(=O)N[C@@H](Cc2ccc(OC)cc2)C(=O)N2C[C@@H](O)C[C@@H]2C(=O)N[C@@H](Cc2c[nH]c3ccccc23)C(=O)N[C@@H](Cc2ccc(O)cc2)C(=O)N[C@@H](CC(C)C)C(=O)N[C@H](C(=O)NCC(N)=O)CSCC(=O)N[C@@H](Cc2ccc(F)c(F)c2)C(=O)N(C)[C@@H](Cc2ccccc2)C(=O)N1C [Example 9225] ({CH2CO}-[Phe(3,4-F2)][NMeF][NMeNle][dHyp]DV[NMeF]Y(Me)[dHyp]WYLCG-NH2; thioether N-13)",1 to 9.9
2,"CCCC[C@H]1C(=O)N2C[C@@H](O)C[C@@H]2C(=O)N[C@@H](CC(=O)O)C(=O)N[C@@H](C(C)C)C(=O)N(C)[C@H](Cc2ccccc2)C(=O)N[C@@H](Cc2ccc(OC)cc2)C(=O)N2C[C@@H](O)C[C@@H]2C(=O)N[C@@H](Cc2c[nH]c3ccccc23)C(=O)N[C@@H](Cc2ccc(O)cc2)C(=O)N[C@@H](CC(C)C)C(=O)N[C@H](C(=O)NCC(N)=O)CSCC(=O)N[C@@H](Cc2ccc(F)c(F)c2)C(=O)N(C)[C@@H](Cc2ccccc2)C(=O)N1C [Example 9226] ({CH2CO}-[Phe(3,4-F2)][NMeF][NMeNle][dHyp]DV[dNMeF]Y(Me)[dHyp]WYLCG-NH2; thioether N-13)",10 to 99.9
3,"CCCC[C@H]1C(=O)N2C[C@@H](O)C[C@@H]2C(=O)N[C@@H](CC(=O)O)C(=O)N[C@@H](C(C)C)C(=O)N(C)[C@@H](Cc2ccccc2)C(=O)N[C@@H](Cc2ccc(O)cc2)C(=O)N2C[C@@H](O)C[C@@H]2C(=O)N[C@@H](Cc2c[nH]c3ccccc23)C(=O)N[C@@H](Cc2ccc(O)cc2)C(=O)N[C@@H](CC(C)C)C(=O)N[C@H](C(=O)NCC(N)=O)CSCC(=O)N[C@@H](Cc2ccc(F)c(F)c2)C(=O)N(C)[C@@H](Cc2ccccc2)C(=O)N1C [Example 9227] ({CH2CO}-[Phe(3,4-F2)][NMeF][NMeNle][dHyp]DV[NMeF]Y[dHyp]WYLCG-NH2; thioether N-13)",1 to 9.9
4,"CCCC[C@H]1C(=O)N2C[C@@H](O)C[C@@H]2C(=O)N[C@@H](CC(=O)O)C(=O)N[C@@H](C(C)C)C(=O)N(C)[C@H](Cc2ccccc2)C(=O)N[C@@H](Cc2ccc(O)cc2)C(=O)N2C[C@@H](O)C[C@@H]2C(=O)N[C@@H](Cc2c[nH]c3ccccc23)C(=O)N[C@@H](Cc2ccc(O)cc2)C(=O)N[C@@H](CC(C)C)C(=O)N[C@H](C(=O)NCC(N)=O)CSCC(=O)N[C@@H](Cc2ccc(F)c(F)c2)C(=O)N(C)[C@@H](Cc2ccccc2)C(=O)N1C [Example 9228] ({CH2CO}-[Phe(3,4-F2)][NMeF][NMeNle][dHyp]DV[dNMeF]Y[dHyp]WYLCG-NH2; thioether N-13)",10 to 99.9
5,"CCCC[C@H]1C(=O)N2C[C@@H](C)C[C@@H]2C(=O)N[C@@H](CC(=O)O)C(=O)N[C@@H](C(C)C)C(=O)N(C)[C@@H](Cc2ccccc2)C(=O)N[C@@H](Cc2ccc(OC)cc2)C(=O)N2C[C@@H](O)C[C@@H]2C(=O)N[C@@H](Cc2c[nH]c3ccccc23)C(=O)N[C@@H](Cc2ccc(O)cc2)C(=O)N[C@@H](CCCN)C(=O)N[C@H](C(=O)NCC(N)=O)CSCC(=O)N[C@@H](Cc2ccc(F)c(F)c2)C(=O)N(C)[C@@H](Cc2ccccc2)C(=O)N1C [Example 9229] ({CH2CO}-[Phe(3,4-F2)][NMeF][NMeNle][dPro(4S-Me)]DV[NMeF]Y(Me)[dHyp]WY[Orn]CG-NH2; thioether N-13)",1 to 9.9
6,"CCCC[C@H]1C(=O)N2C[C@@H](C)C[C@@H]2C(=O)N[C@@H](CC(=O)O)C(=O)N[C@@H](C(C)C)C(=O)N(C)[C@H](Cc2ccccc2)C(=O)N[C@@H](Cc2ccc(OC)cc2)C(=O)N2C[C@@H](O)C[C@@H]2C(=O)N[C@@H](Cc2c[nH]c3ccccc23)C(=O)N[C@@H](Cc2ccc(O)cc2)C(=O)N[C@@H](CCCN)C(=O)N[C@H](C(=O)NCC(N)=O)CSCC(=O)N[C@@H](Cc2ccc(F)c(F)c2)C(=O)N(C)[C@@H](Cc2ccccc2)C(=O)N1C [Example 9230] ({CH2CO}-[Phe(3,4-F2)][NMeF][NMeNle][dPro(4S-Me)]DV[dNMeF]Y(Me)[dHyp]WY[Orn]CG-NH2; thioether N-13)",10 to 99.9
7,"CCCC[C@H]1C(=O)N2C[C@@H](O)C[C@@H]2C(=O)N[C@@H](CC(=O)O)C(=O)N[C@@H](C(C)C)C(=O)N(C)[C@@H](Cc2ccccc2)C(=O)N[C@@H](Cc2ccc(O)cc2)C(=O)N2C[C@@H](O)C[C@@H]2C(=O)N[C@@H](Cc2c[nH]c3ccccc23)C(=O)N[C@@H](Cc2ccc(O)cc2)C(=O)N[C@@H](CCCN)C(=O)N[C@H](C(=O)NCC(N)=O)CSCC(=O)N[C@@H](Cc2ccc(F)c(F)c2)C(=O)N(C)[C@@H](Cc2ccccc2)C(=O)N1C [Example 9231] ({CH2CO}-[Phe(3,4-F2)][NMeF][NMeNle][dHyp]DV[NMeF]Y[dHyp]WY[Orn]CG-NH2; thioether N-13)",1 to 9.9
8,"CCCC[C@H]1C(=O)N2C[C@@H](O)C[C@@H]2C(=O)N[C@@H](CC(=O)O)C(=O)N[C@@H](C(C)C)C(=O)N(C)[C@H](Cc2ccccc2)C(=O)N[C@@H](Cc2ccc(O)cc2)C(=O)N2C[C@@H](O)C[C@@H]2C(=O)N[C@@H](Cc2c[nH]c3ccccc23)C(=O)N[C@@H](Cc2ccc(O)cc2)C(=O)N[C@@H](CCCN)C(=O)N[C@H](C(=O)NCC(N)=O)CSCC(=O)N[C@@H](Cc2ccc(F)c(F)c2)C(=O)N(C)[C@@H](Cc2ccccc2)C(=O)N1C [Example 9232] ({CH2CO}-[Phe(3,4-F2)][NMeF][NMeNle][dHyp]DV[dNMeF]Y[dHyp]WY[Orn]CG-NH2; thioether N-13)",1 to 9.9
9,"COCC[C@H]1C(=O)N2C[C@@H](O)C[C@@H]2C(=O)N[C@@H](CC(=O)O)C(=O)N[C@@H](C(C)C)C(=O)N(C)[C@@H](Cc2ccccc2)C(=O)N[C@@H](Cc2ccc(O)cc2)C(=O)N2C[C@@H](O)C[C@@H]2C(=O)N[C@@H](Cc2c[nH]c3ccccc23)C(=O)N[C@@H](Cc2ccc(O)cc2)C(=O)N[C@@H](CC(C)C)C(=O)N[C@H](C(=O)NCC(N)=O)CSCC(=O)N[C@@H](Cc2ccc(F)c(F)c2)C(=O)N(C)[C@@H](Cc2ccccc2)C(=O)N1C [Example 9233] ({CH2CO}-[Phe(3,4-F2)][NMeF][NMehSer](Me)[dHyp]DV[NMeF]Y[dHyp]WYLCG-NH2; thioether N-13)",1 to 9.9
10,"COCC[C@H]1C(=O)N2C[C@@H](O)C[C@@H]2C(=O)N[C@@H](CC(=O)O)C(=O)N[C@@H](C(C)C)C(=O)N(C)[C@H](Cc2ccccc2)C(=O)N[C@@H](Cc2ccc(O)cc2)C(=O)N2C[C@@H](O)C[C@@H]2C(=O)N[C@@H](Cc2c[nH]c3ccccc23)C(=O)N[C@@H](Cc2ccc(O)cc2)C(=O)N[C@@H](CC(C)C)C(=O)N[C@H](C(=O)NCC(N)=O)CSCC(=O)N[C@@H](Cc2ccc(F)c(F)c2)C(=O)N(C)[C@@H](Cc2ccccc2)C(=O)N1C [Example 9234] ({CH2CO}-[Phe(3,4-F2)][NMeF][NMehSer](Me)[dHyp]DV[dNMeF]Y[dHyp]WYLCG-NH2; thioether N-13)",1 to 9.9
11,"COCC[C@H]1C(=O)N2C[C@@H](O)C[C@@H]2C(=O)N[C@@H](CC(=O)O)C(=O)N[C@@H](C(C)C)C(=O)N(C)[C@@H](Cc2ccccc2)C(=O)N[C@@H](Cc2ccc(OC)cc2)C(=O)N2C[C@@H](O)C[C@@H]2C(=O)N[C@@H](Cc2c[nH]c3ccccc23)C(=O)N[C@@H](Cc2ccc(O)cc2)C(=O)N[C@@H](CC(C)C)C(=O)N[C@H](C(=O)NCC(N)=O)CSCC(=O)N[C@@H](Cc2ccc(F)c(F)c2)C(=O)N(C)[C@@H](Cc2ccccc2)C(=O)N1C [Example 9235] ({CH2CO}-[Phe(3,4-F2)][NMeF][NMehSer](Me)[dHyp]DV[NMeF]Y(Me)[dHyp]WYLCG-NH2; thioether N-13)",1 to 9.9
12,"COCC[C@H]1C(=O)N2C[C@@H](O)C[C@@H]2C(=O)N[C@@H](CC(=O)O)C(=O)N[C@@H](C(C)C)C(=O)N(C)[C@H](Cc2ccccc2)C(=O)N[C@@H](Cc2ccc(OC)cc2)C(=O)N2C[C@@H](O)C[C@@H]2C(=O)N[C@@H](Cc2c[nH]c3ccccc23)C(=O)N[C@@H](Cc2ccc(O)cc2)C(=O)N[C@@H](CC(C)C)C(=O)N[C@H](C(=O)NCC(N)=O)CSCC(=O)N[C@@H](Cc2ccc(F)c(F)c2)C(=O)N(C)[C@@H](Cc2ccccc2)C(=O)N1C [Example 9236] ({CH2CO}-[Phe(3,4-F2)][NMeF][NMehSer](Me)[dHyp]DV[dNMeF]Y(Me)[dHyp]WYLCG-NH2; thioether N-13)",1 to 9.9
13,"COCC[C@H]1C(=O)N2C[C@@H](O)C[C@@H]2C(=O)N[C@@H](CC(=O)O)C(=O)N[C@@H](C(C)C)C(=O)N(C)[C@@H](Cc2ccccc2)C(=O)N[C@@H](Cc2ccc(O)cc2)C(=O)N2C[C@@H](O)C[C@@H]2C(=O)N[C@@H](Cc2c[nH]c3ccccc23)C(=O)N[C@@H](Cc2ccc(O)cc2)C(=O)N[C@@H](CCCN)C(=O)N[C@H](C(=O)NCC(N)=O)CSCC(=O)N[C@@H](Cc2ccc(F)c(F)c2)C(=O)N(C)[C@@H](Cc2ccccc2)C(=O)N1C [Example 9237] ({CH2CO}-[Phe(3,4-F2)][NMeF][NMehSer](Me)[dHyp]DV[NMeF]Y[dHyp]WY[Orn]CG-NH2; thioether N-13)",1 to 9.9
14,"COCC[C@H]1C(=O)N2C[C@@H](O)C[C@@H]2C(=O)N[C@@H](CC(=O)O)C(=O)N[C@@H](C(C)C)C(=O)N(C)[C@H](Cc2ccccc2)C(=O)N[C@@H](Cc2ccc(O)cc2)C(=O)N2C[C@@H](O)C[C@@H]2C(=O)N[C@@H](Cc2c[nH]c3ccccc23)C(=O)N[C@@H](Cc2ccc(O)cc2)C(=O)N[C@@H](CCCN)C(=O)N[C@H](C(=O)NCC(N)=O)CSCC(=O)N[C@@H](Cc2ccc(F)c(F)c2)C(=O)N(C)[C@@H](Cc2ccccc2)C(=O)N1C [Example 9238] ({CH2CO}-[Phe(3,4-F2)][NMeF][NMehSer](Me)[dHyp]DV[dNMeF]Y[dHyp]WY[Orn]CG-NH2; thioether N-13)",1 to 9.9
